Experimental data published in PubChem BioAssay AID330 (DTP/NCI, 2004).
Values joined by “and” are separate entries in the source; they are usually repeats but may differ in a detail not shown here. Equal entries are not always repeated. Inconclusive results and toxic doses are left out.

Test system: P388 leukemia ip, CD2F1 mice, survival T/C
Test: NCI In Vivo Anticancer Drug Screen. Data for tumor model P388 Leukemia (intraperitoneal) in CD2F1 (CDF1) mice
Settings: endpoint: median survival time, higher = longer survival
Summary of the method: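 Mice carrying the transplanted tumor received test compound or vehicle. Survival was recorded in each group, and the value is the treated-group measurement divided by that of the vehicle-treated control group.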

With `Cc1no[n+]([O-])c1NC(=O)OCc1ccccc1` the T/C (dose: 7.5 mg/kg/injection, schedule: Q01DX005 (ip), vehicle: saline with Tween-80) was 96 % of control, the T/C (dose: 15.0 mg/kg/injection, schedule: Q01DX005 (ip), vehicle: saline with Tween-80) was 100 % of control and the T/C (dose: 30.0 mg/kg/injection, schedule: Q01DX005 (ip), vehicle: saline with Tween-80) was 99 % of control. The T/C (dose: 60.0 mg/kg/injection, schedule: Q01DX005 (ip), vehicle: saline with Tween-80) was 107 % of control, the T/C (dose: 120.0 mg/kg/injection, schedule: Q01DX005 (ip), vehicle: saline with Tween-80) was 101 % of control and the T/C (dose: 240.0 mg/kg/injection, schedule: Q01DX005 (ip), vehicle: saline with Tween-80) was 100 % of control.

`COc1cc(NS(C)(=O)=O)ccc1Nc1c2ccccc2nc2ccccc12` was tested, and the T/C (dose: 0.25 mg/kg/injection, schedule: Q01DX009 (ip), vehicle: other) was 119 % of control, the T/C (dose: 0.52 mg/kg/injection, schedule: Q01DX009 (ip), vehicle: other) was 151 % of control and the T/C (dose: 0.86 mg/kg/injection, schedule: Q01DX009 (ip), vehicle: other) was 163 % of control. The T/C (dose: 1.0 mg/kg/injection, schedule: Q01DX005 (iv), vehicle: other) was 120 % of control, the T/C (dose: 1.0 mg/kg/injection, schedule: Q01DX009 (ip), vehicle: other) was 157 % of control and the T/C (dose: 1.0 mg/kg/injection, schedule: Q04DX003 (ip), vehicle: other) was 118 % of control. For the same compound, the T/C (dose: 1.44 mg/kg/injection, schedule: Q01DX009 (ip), vehicle: other) was 173 % of control, the T/C (dose: 1.5 mg/kg/injection, schedule: Q04DX003 (ip), vehicle: clinical formulation) was 152 % of control and the T/C (dose: 2.0 mg/kg/injection, schedule: Q01DX005 (ip), vehicle: other) was 153 % of control and 163 % of control. For the same compound, the T/C (dose: 2.0 mg/kg/injection, schedule: Q01DX005 (oral), vehicle: other) was 111 % of control, the T/C (dose: 2.0 mg/kg/injection, schedule: Q01DX009 (ip), vehicle: other) was 175 % of control and 195 % of control and the T/C (dose: 2.0 mg/kg/injection, schedule: Q04DX003 (oral), vehicle: other) was 111 % of control. The T/C (dose: 2.4 mg/kg/injection, schedule: Q01DX009 (ip), vehicle: other) was 209 % of control, the T/C (dose: 2.5 mg/kg/injection, schedule: Q04DX002 (ip), vehicle: clinical formulation) was 153 % of control and 173 % of control and the T/C (dose: 2.5 mg/kg/injection, schedule: Q04DX003 (ip), vehicle: other) was 155 % of control. The T/C (dose: 2.59 mg/kg/injection, schedule: Q04DX003 (ip), vehicle: clinical formulation) was 167 % of control, the T/C (dose: 2.59 mg/kg/injection, schedule: Q04DX003 (ip), vehicle: saline) was 168 % of control and the T/C (dose: 2.59 mg/kg/injection, schedule: Q04DX003 (ip), vehicle: water) was 161 % of control and 163 % of control and 179 % of control. The T/C (dose: 2.6 mg/kg/injection, schedule: Q04DX002 (ip), vehicle: other) was 160 % of control, the T/C (dose: 3.0 mg/kg/injection, schedule: Q04DX003 (ip), vehicle: clinical formulation) was 160 % of control and the T/C (dose: 4.0 mg/kg/injection, schedule: Q01DX005 (ip), vehicle: other) was 183 % of control and 207 % of control. The T/C (dose: 4.0 mg/kg/injection, schedule: Q01DX005 (iv), vehicle: other) was 154 % of control, the T/C (dose: 4.0 mg/kg/injection, schedule: Q01DX005 (oral), vehicle: other) was 120 % of control and the T/C (dose: 4.0 mg/kg/injection, schedule: Q01DX009 (ip), vehicle: other) was 192 % of control and 223 % of control and 90 % of control. For the same compound, the T/C (dose: 4.0 mg/kg/injection, schedule: Q04DX003 (ip), vehicle: other) was 163 % of control, the T/C (dose: 4.0 mg/kg/injection, schedule: Q04DX003 (oral), vehicle: other) was 119 % of control and the T/C (dose: 4.3 mg/kg/injection, schedule: Q04DX002 (ip), vehicle: other) was 179 % of control. For the same compound, the T/C (dose: 4.32 mg/kg/injection, schedule: Q04DX003 (ip), vehicle: clinical formulation) was 173 % of control, the T/C (dose: 4.32 mg/kg/injection, schedule: Q04DX003 (ip), vehicle: saline) was 175 % of control and the T/C (dose: 4.32 mg/kg/injection, schedule: Q04DX003 (ip), vehicle: water) was 169 % of control and 176 % of control and 180 % of control. For the same compound, the T/C (dose: 5.0 mg/kg/injection, schedule: Q04DX002 (ip), vehicle: clinical formulation) was 172 % of control and 186 % of control, the T/C (dose: 5.0 mg/kg/injection, schedule: Q04DX003 (ip), vehicle: other) was 156 % of control and 161 % of control and 193 % of control and the T/C (dose: 6.0 mg/kg/injection, schedule: Q04DX003 (ip), vehicle: clinical formulation) was 203 % of control. For the same compound, the T/C (dose: 6.0 mg/kg/injection, schedule: Q04DX003 (ip), vehicle: saline with Tween-80) was 175 % of control, the T/C (dose: 6.25 mg/kg/injection, schedule: Q04DX002 (oral), vehicle: other) was 101 % of control and 106 % of control and the T/C (dose: 7.2 mg/kg/injection, schedule: Q04DX003 (ip), vehicle: clinical formulation) was 216 % of control. For the same compound, the T/C (dose: 7.2 mg/kg/injection, schedule: Q04DX003 (ip), vehicle: saline) was 214 % of control, the T/C (dose: 7.2 mg/kg/injection, schedule: Q04DX003 (ip), vehicle: water) was 197 % of control and 204 % of control and 219 % of control and the T/C (dose: 8.0 mg/kg/injection, schedule: Q01DX005 (ip), vehicle: other) was 193 % of control. The T/C (dose: 8.0 mg/kg/injection, schedule: Q04DX003 (ip), vehicle: other) was 158 % of control and 204 % of control, the T/C (dose: 8.0 mg/kg/injection, schedule: Q04DX003 (ip), vehicle: saline with Tween-80) was 182 % of control and 235 % of control and the T/C (dose: 8.0 mg/kg/injection, schedule: Q04DX003 (oral), vehicle: other) was 123 % of control. The T/C (dose: 10.0 mg/kg/injection, schedule: Q04DX002 (ip), vehicle: clinical formulation) was 216 % of control and 238 % of control, the T/C (dose: 10.0 mg/kg/injection, schedule: Q04DX003 (ip), vehicle: other) was 182 % of control and 204 % of control and 245 % of control and the T/C (dose: 10.8 mg/kg/injection, schedule: Q01DX001 (ip), vehicle: other) was 153 % of control. For the same compound, the T/C (dose: 12.0 mg/kg/injection, schedule: Q04DX003 (ip), vehicle: clinical formulation) was 207 % of control and 228 % of control, the T/C (dose: 12.0 mg/kg/injection, schedule: Q04DX003 (ip), vehicle: saline) was 261 % of control and the T/C (dose: 12.0 mg/kg/injection, schedule: Q04DX003 (ip), vehicle: water) was 230 % of control and 231 % of control. The T/C (dose: 12.5 mg/kg/injection, schedule: Q04DX002 (oral), vehicle: other) was 107 % of control and 117 % of control, the T/C (dose: 16.0 mg/kg/injection, schedule: Q04DX003 (ip), vehicle: other) was 193 % of control and 245 % of control and the T/C (dose: 18.0 mg/kg/injection, schedule: Q01DX001 (ip), vehicle: other) was 165 % of control. For the same compound, the T/C (dose: 18.0 mg/kg/injection, schedule: Q04DX003 (ip), vehicle: saline with Tween-80) was 191 % of control and 264 % of control, the T/C (dose: 20.0 mg/kg/injection, schedule: Q01DX001 (ip), vehicle: saline with Tween-80) was 117 % of control and the T/C (dose: 20.0 mg/kg/injection, schedule: Q04DX002 (ip), vehicle: clinical formulation) was 281 % of control. The T/C (dose: 22.5 mg/kg/injection, schedule: Q04DX003 (ip), vehicle: saline with Tween-80) was 198 % of control, the T/C (dose: 25.0 mg/kg/injection, schedule: Q04DX002 (oral), vehicle: other) was 120 % of control and the T/C (dose: 25.0 mg/kg/injection, schedule: Q04DX003 (ip), vehicle: saline with Tween-80) was 161 % of control. For the same compound, the T/C (dose: 30.0 mg/kg/injection, schedule: Q01DX001 (ip), vehicle: other) was 180 % of control, the T/C (dose: 30.0 mg/kg/injection, schedule: Q01DX001 (ip), vehicle: saline with Tween-80) was 120 % of control and the T/C (dose: 32.0 mg/kg/injection, schedule: Q04DX003 (oral), vehicle: other) was 172 % of control. For the same compound, the T/C (dose: 40.0 mg/kg/injection, schedule: Q01DX001 (ip), vehicle: saline with Tween-80) was 228 % of control, the T/C (dose: 40.0 mg/kg/injection, schedule: Q04DX003 (ip), vehicle: other) was 86 % of control and the T/C (dose: 45.0 mg/kg/injection, schedule: Q04DX003 (ip), vehicle: saline with Tween-80) was 187 % of control and 222 % of control and 274 % of control. The T/C (dose: 50.0 mg/kg/injection, schedule: Q01DX001 (ip), vehicle: saline with Tween-80) was 124 % of control, the T/C (dose: 50.0 mg/kg/injection, schedule: Q04DX002 (oral), vehicle: other) was 151 % of control and 168 % of control and the T/C (dose: 50.0 mg/kg/injection, schedule: Q04DX003 (oral), vehicle: other) was 91 % of control. For the same compound, the T/C (dose: 60.0 mg/kg/injection, schedule: Q01DX001 (ip), vehicle: saline with Tween-80) was 252 % of control.
